US20150329896A1, “N-END RULE PROTEASE ACTIVITY […] AND USES THEREOF” (priority 2010, published 2015)
Peptide text beside a SMILES is read from it. * marks the point of attachment. Cbz = O=C(OCc1ccccc1)*

Test system: proteasome
Type: cell-based

## CC(C)C[C@@H](C=O)NC(=O)[C@H](CC(C)C)NC(=O)[C@H](CC(C)C)NC(=O)OCc1ccccc1 [MG132] (Cbz-Leu-Leu-Leu-aldehyde)
  level of C-terminal (P9-luciferase) fragment produced by BoNT/A proteolysis: accumulated
